Results as given in patent publication US8017629B2, “Compounds and uses thereof in modulating amyloid β” (Neurogenetic Pharmaceuticals, Inc., priority 2003, dated 2011).

Test system: Aβ42 levels in the extracellular medium
Experiment: FRET (HTRF) assay, Aβ42 level of the extracellular medium of SH-SY5Y-APP cells
Assay type: cell-based
Settings: Homo sapiens, concentration at which reduction of Aβ42 level was half of the maximum reduction, read-out: Ab42 Potency
Protocol: Compounds were evaluated for activity in modulating Aβ42 and Aβ40 levels in the extracellular medium using a homogeneous time-resolved fluorescence (HTRF) assay as follows.
For the HTRF assay, either 5 or 10 μl of supernatant from treated cells was added to 10 or 15 μl of labeled antibody pairs, for a total volume of 20 μl, and incubated for 20-24 hours at 4° C. The labeled antibody pairs were either 8000 pg B436-XL665 and 400 pg B113 Europium, for assessing Aβ40 levels, or 8000 pg B436-XL665 and 400 pg A387 Europium, for assessing Aβ42 levels, diluted in 50 mM NaPO4, 0.2% BSA, 0.5M KF, pH 7. The fluorescence was read on a BMG Rubystar at 620 nm and 665 nm.

SMILES	EC50 [µM]
CN1CCC(CNc2ccc(Nc3nc(-c4ccc(-n5ccnc5)cc4)cs3)cc2)CC1 [Compound 188]	1.1 to 5
CCN(CC)c1ccc(Nc2nc(-c3ccc(-n4ccnc4C)cc3)cs2)c(C)c1 [Compound 189]	1.1 to 5
CCN(CC)c1ccc(Nc2nc(-c3ccc(-n4cnc(C)c4)cc3OC)cs2)c(C)c1 [Compound 190]	0.2 to 1
CN1CCN(C(=O)c2ccc(Nc3nc(-c4ccc(N5CCN(C)CC5)cc4)cs3)cc2)CC1 [Compound 191]	1.1 to 5
CC(C)N1CCN(C(=O)c2ccc(Nc3nc(-c4ccc(N5CCN(C)CC5)cc4)cs3)cc2)CC1 [Compound 192]	5.1 to 10
Cc1ccc(Nc2nc(-c3ccc(N4CCN(C)CC4)cc3)cs2)cc1C [Compound 195]	10.1 to 30
CSc1ccccc1Nc1nc(-c2ccc(N3CCN(C)CC3)cc2)cs1 [Compound 196]	5.1 to 10
CN1CCN(c2ccc(-c3csc(Nc4ccc(OC(F)(F)F)c(Cl)c4)n3)cc2)CC1 [Compound 198]	1.1 to 5
CCN(CC)c1ccc(Nc2nc(-c3ccc(-n4cnc(Br)c4)cc3)cs2)c(C)c1 [Compound 199]	0.2 to 1
Cc1cc(N2CCN(C)CC2)ccc1Nc1nc(-c2ccc(-n3ccnc3)cc2)cs1 [Compound 200]	1.1 to 5
Cc1cc(N2CCN(Cc3ccccc3)CC2)ccc1Nc1nc(-c2ccc(-n3ccnc3)cc2)cs1 [Compound 201]	1.1 to 5
Cc1cc(NCCN(C)C)ccc1Nc1nc(-c2ccc(-n3ccnc3)cc2)cs1 [Compound 202]	1.1 to 5
CCN(CCO)c1ccc(Nc2nc(-c3ccc(-n4ccnc4)cc3)cs2)c(C)c1 [Compound 203]	1.1 to 5
CCN(CCO)c1ccc(Nc2nc(-c3ccc(-n4cnc(C)c4)cc3)cs2)c(C)c1 [Compound 204]	0.2 to 1
CCN(CC)c1ccc(Nc2nc(-c3ccc(-n4cnc(C)c4)cc3C(F)(F)F)c(C)s2)c(C)c1 [Compound 205]	1.1 to 5
Cc1cc(NCc2ccccn2)ccc1Nc1nc(-c2ccc(-n3ccnc3)cc2)cs1 [Compound 208]	5.1 to 10
CCN(CC)CCN(C)c1ccc(Nc2nc(-c3ccc(-n4ccnc4)cc3)cs2)c(C)c1 [Compound 210]	1.1 to 5
Brc1cccc(Nc2nc(-c3ccc(-n4ccnc4)cc3)cs2)c1 [Compound 212]	1.1 to 5
CN1CCN(c2ccc(Nc3nc(-c4ccc(-n5ccnc5)cc4)cs3)c(C(F)(F)F)c2)CC1 [Compound 215]	1.1 to 5
CN1CCC(CNc2ccc(Nc3nc(-c4ccc(-n5ccnc5)cc4)cs3)c(C(F)(F)F)c2)CC1 [Compound 216]	5.1 to 10
CN(C)CCNc1ccc(Nc2nc(-c3ccc(-n4ccnc4)cc3)cs2)c(C(F)(F)F)c1 [Compound 217]	1.1 to 5
CCN(CC)c1ccc(Nc2nc(-c3ccc(-n4ccnc4)cc3)cs2)c(C(F)(F)F)c1 [Compound 218]	1.1 to 5
CCN(CC)CCN(C)c1ccc(Nc2nc(-c3ccc(-n4ccnc4)cc3)cs2)c(C(F)(F)F)c1 [Compound 219]	1.1 to 5
FC(F)(F)c1cc(NC2CCCC2)ccc1Nc1nc(-c2ccc(-n3ccnc3)cc2)cs1 [Compound 220]	10.1 to 30
FC(F)(F)c1cc(N2CC=CC2)ccc1Nc1nc(-c2ccc(-n3ccnc3)cc2)cs1 [Compound 221]	1.1 to 5
FC(F)(F)c1cc(NCCN2CCCC2)ccc1Nc1nc(-c2ccc(-n3ccnc3)cc2)cs1 [Compound 222]	1.1 to 5
FC(F)(F)c1cc(NCc2ccccn2)ccc1Nc1nc(-c2ccc(-n3ccnc3)cc2)cs1 [Compound 223]	5.1 to 10

SMILES	EC50 [µM]
CNCCN(C)c1ccc(Nc2nc(-c3ccc(-n4ccnc4)cc3)cs2)c(C(F)(F)F)c1 [Compound 224]	1.1 to 5
Cc1cn(-c2ccc(-c3csc(Nc4ccc(N5CCOCC5)c(Cl)c4)n3)cc2)cn1 [Compound 225]	1.1 to 5
Cc1cccc(Nc2nc(-c3ccc(N4CCN(C)CC4)cc3)cs2)c1 [Compound 226]	1.1 to 5
CCN(CC)c1ccc(Nc2nc(-c3ccc(-n4cnc(C)c4)cc3C(F)(F)F)cs2)c(C)c1 [Compound 227]	5.1 to 10
CCN(CCO)c1ccc(Nc2nc(-c3ccc(-n4cnc5ccccc54)cc3)cs2)c(C)c1 [Compound 228]	5.1 to 10
Cc1cn(-c2ccc(-c3csc(Nc4ccc(N5CCOCC5)c(Cl)c4)n3)c(C(F)(F)F)c2)cn1 [Compound 229]	5.1 to 10
CCN(CCOC)c1ccc(Nc2nc(-c3ccc(-n4ccnc4)cc3)cs2)c(C)c1 [Compound 230]	1.1 to 5
CCN(CCOC)c1ccc(Nc2nc(-c3ccc(-n4cnc(C)c4)cc3)cs2)c(C)c1 [Compound 231]	0.2 to 1
CCN(CCOC)c1ccc(Nc2nc(-c3ccc(-n4cnc(C)c4)cc3C(F)(F)F)cs2)c(C)c1 [Compound 232]	5.1 to 10
NC(=O)c1ncn(-c2ccc(-c3csc(Nc4ccc(N5CCOCC5)c(Cl)c4)n3)cc2)n1 [Compound 233]	1.1 to 5
CCc1cccc(Nc2nc(-c3ccc(N4CCN(C)CC4)cc3)cs2)c1 [Compound 234]	1.1 to 5
CCc1cc(N2CCOCC2)ccc1Nc1nc(-c2ccc(-n3ccnc3)cc2)cs1 [Compound 239]	1.1 to 5
CCc1cc(N2CCN(C)CC2)ccc1Nc1nc(-c2ccc(-n3ccnc3)cc2)cs1 [Compound 240]	1.1 to 5
CCN(CC)c1ccc(Nc2nc(-c3ccc(-n4cnc(C)c4)nc3)cs2)c(C)c1 [Compound 247]	< 0.2
Cc1cc(C)c(Nc2nc(-c3ccc(-n4cnc(C)c4)cc3)cs2)c(C)c1 [Compound 250]	0.2 to 1
Cc1cc(C)c(Nc2nc(-c3ccc(-n4cnc(Br)c4)cc3)cs2)c(C)c1 [Compound 251]	1.1 to 5
Cc1ccc(N2CCCCC2)cc1Nc1nc(-c2ccc(-n3ccnc3)cc2)cs1 [Compound 252]	1.1 to 5
Cc1ccc(N2CCOCC2)cc1Nc1nc(-c2ccc(-n3ccnc3)cc2)cs1 [Compound 253]	0.2 to 1
Cc1ccc(N2CCSCC2)cc1Nc1nc(-c2ccc(-n3ccnc3)cc2)cs1 [Compound 254]	0.2 to 1
Cc1ccc(N2CCN(C)CC2)cc1Nc1nc(-c2ccc(-n3ccnc3)cc2)cs1 [Compound 255]	0.2 to 1
Cc1ccc(NCC2CCN(C)CC2)cc1Nc1nc(-c2ccc(-n3ccnc3)cc2)cs1 [Compound 256]	1.1 to 5
CNCCN(C)c1ccc(C)c(Nc2nc(-c3ccc(-n4ccnc4)cc3)cs2)c1 [Compound 258]	1.1 to 5
Cc1ccc(N(C)C)cc1Nc1nc(-c2ccc(-n3ccnc3)cc2)cs1 [Compound 259]	0.2 to 1
Cc1cn(-c2ccc(-c3csc(Nc4ccc(N5CC(C)OC(C)C5)cc4)n3)cc2)cn1 (centres unmarked) [Compound 260]	1.1 to 5
CCN(CCOC)c1ccc(Nc2nc(-c3ccc(-n4cnc(C)c4)nc3)cs2)c(C)c1 [Compound 261]	0.2 to 1
Cc1cn(-c2ccc(-c3csc(Nc4cc(C)c(C)cc4C)n3)cn2)cn1 [Compound 262]	0.2 to 1
COc1cc(-n2cnc(C)c2)ccc1-c1csc(Nc2cc(C)c(C)cc2C)n1 [Compound 263]	0.2 to 1

Now from value to molecule:

EC50 [µM]	SMILES
1.1 to 5	COc1ccc(-c2nc(Nc3cc(Cl)c(Cl)cc3Cl)sc2CC(=O)O)cc1 [Compound 187]
10.1 to 30	Cc1ccc(Nc2nc(-c3ccc(C#N)cc3)cs2)cc1Cl [Compound 193]
1.1 to 5	COc1ccc(-c2csc(Nc3ccc(C)c(Cl)c3)n2)c(OC)c1 [Compound 194]
< 0.2	COc1ccc(C)c(Nc2nc(-c3ccc(-n4cnc(C)c4)nc3)cs2)c1 [Compound 197]
5.1 to 10	CCN(CCO)c1ccc(Nc2nc(-c3ccc(-n4cnc(C)c4)cc3C(F)(F)F)c(C)s2)c(C)c1 [Compound 206]
1.1 to 5	CCN(CCO)c1ccc(Nc2nc(-c3ccc(-n4cnc(C)c4)cc3OC)cs2)c(C)c1 [Compound 207]
5.1 to 10	CCc1ccc(C)nc1Nc1ccc(Nc2nc(-c3ccc(-n4ccnc4)cc3)cs2)c(C)c1 [Compound 209]
10.1 to 30	N#Cc1ccc(-c2csc(Nc3cc(Cl)cc(Cl)c3)n2)cc1 [Compound 211]
1.1 to 5	Clc1cc(Cl)c(Nc2nc(-c3ccc(-n4ccnc4)cc3)cs2)c(Cl)c1 [Compound 213]
10.1 to 30	CS(=O)(=O)c1ccc(-c2csc(Nc3c(Cl)cc(Cl)cc3Cl)n2)cc1 [Compound 214]
0.2 to 1	Cc1cn(-c2ccc(-c3csc(Nc4cc(C)c(C)cc4C)n3)cc2)cn1 [Compound 235]
0.2 to 1	Cc1cc(C)c(Nc2nc(-c3ccc(-n4cnc(Br)c4)cc3)cs2)cc1C [Compound 236]
0.2 to 1	Cc1cn(-c2ccc(-c3csc(Nc4cc(Cl)c(Cl)cc4Cl)n3)cc2)cn1 [Compound 237]
1.1 to 5	Cc1cn(-c2ccc(-c3csc(Nc4c(Cl)cc(Cl)cc4Cl)n3)cc2)cn1 [Compound 238]
1.1 to 5	CCc1cc(N(CC)CC)ccc1Nc1nc(-c2ccc(-n3ccnc3)cc2)cs1 [Compound 241]
0.2 to 1	Cc1cn(-c2ccc(-c3nc(Nc4cc(C)c(C)cc4C)sc3C)cc2)cn1 [Compound 242]
1.1 to 5	Cc1cn(-c2ccc(-c3nc(Nc4cc(C)c(C)cc4C)sc3C)cc2Br)cn1 [Compound 243]
1.1 to 5	Cc1cc(C)c(Nc2nc(-c3ccc(-n4nccn4)cc3)cs2)cc1C [Compound 244]
1.1 to 5	Cc1cn(-c2ccc(-c3nc(Nc4cc(Cl)c(Cl)cc4Cl)sc3C)cc2)cn1 [Compound 245]
1.1 to 5	Cc1cnn(-c2ccc(-c3nc(Nc4c(Cl)cc(Cl)cc4Cl)sc3C)cc2)c1 [Compound 246]
5.1 to 10	CCN(CC)c1ccc(Nc2nc(-c3ccc(-c4c[nH]c(C)n4)cc3)cs2)c(C)c1 [Compound 248]
1.1 to 5	CCN(CC)c1ccc(Nc2nc(-c3ccc(-n4cc(C)nc4C)cc3)cs2)c(C)c1 [Compound 249]
5.1 to 10	CCc1ccc(C)nc1Nc1ccc(C)c(Nc2nc(-c3ccc(-n4ccnc4)cc3)cs2)c1 [Compound 257]
